We go through one compound from patent publication US6924311B2, “Methods for affecting various diseases utilizing LXR compounds” (X-Ceptor Therapeutics, Inc., priority 2001, dated 2005).

Experiment [1] is described as follows: Plasma triglyceride levels in wildtype and LXR knockout mice after oral dosing. It counts as in vivo. Conditions: 10 mg/kg daily oral gavage, 7 days. The source says: To decipher the physiological roles of LXRα and LXRβ mice, seven different lines of mice encompassing four unique LXR genotypes (LXRα+/+, LXRβ+/+=wildtype; LXRα−/−, LXRβ+/+=LXRα−/−; LXRα+/+, LXRβ−/−=LXRβ−/−; LXRα−/−, LXRβ−/−=LXRαβ−/−) were studied. Genetic knockouts of LXRα( LXRα−/−) were generated in two independent mouse strain backgrounds (C57BL/6 and A129). Genetic knockouts of LXRβ (LXRβ−/−) and the double knockout of LXRα and LXRβ (LXRαβ−/−) were generated in a mixed genetic background (C57BL/6×A129). The three appropriate wildtype (LXRα+/+, LXRβ+/+) mouse lines were used as controls. Mice from each line were treated for seven days with 10 mg compound/kg body weight of the LXR agonist Compound 1: N-(2,2,2-trifluoroethyl)-N-[4-(2,2,2- trifluoro-1-hydroxy-1-trifluoromethylethyl)-phenyl]-benzene sulfonamide. […] Compound 1 was administered by daily oral gavage in a sesame oil/ethanol vehicle via a 1-cc syringe fitted with a 20G disposable feeding needle. Compound was solvated in ethanol (5% final volume) and brought up to final volume with sesame oil (Sigma, St. Louis, Mo.).
To determine the ability of Compound 1 to elevate serum triglycerides non-fasting mice were anesthetized with isofluorane and blood samples were obtained by retro-orbital plexus puncture. Blood samples were collected before the first dose and three hours after dosing on day 1, day 3 and day 7 into heparinized tubes. Samples were centrifuged to obtain plasma and stored at −20° C. Plasma triglyceride levels were determined using a colorimetric enzymatic assay adapted to a 96 well plate format (Infinity Triglyceride Reagent, Sigma, St. Louis, Mo.). Sigma glycerol standards (Sigma, St. Louis, Mo.) were use to generate standard curves. The absorbance of the samples and standards were read using a Multiskan plate reader.

The next experiment relates to CYP7a mRNA. Briefly: Liver CYP7a mRNA by quantitative PCR in treated mice. As to conditions: for CYP7a mRNA induction: daily oral 7 days. It counts as in vivo. The source says: The CYP7a gene encodes cholesterol 7α-hydroxylase, the rate-limiting enzyme in the catabolic conversion of cholesterol to bile acids. Increases in CYP7a activity stimulate the conversion of cholesterol to bile acids and may reduce plasma cholesterol levels by depleting hepatocytes of cholesterol. Intracellular cholesterol depletion should stimulate the uptake of LDL particles from the plasma by liver hepatocytes. To determine the contribution of LXRα and LXRβ to the induction of CYP7a by LXR agonists, Compound 1 was administered for seven days by daily oral gavage in a sesame oil/ethanol vehicle via a 1-cc syringe fitted with a 20G disposable feeding needle. Compound was solvated in ethanol (5% final volume) and brought up to final volume with sesame oil (Sigma, St. Louis, Mo.). Three hours after the final dose (day 7) animals were sacrificed, livers were harvested, and total liver RNA was isolated using RNeasy kits (QIAGEN Inc.) according to the supplier's total RNA isolation procedure. The RNA samples were further treated with deoxyribonuclease 1 to eliminate contaminating genomic DNA. CYP7a mRNA levels were than analyzed by real-time based quantitative PCR using Perkin Elmer ABI Prism 7700 and Sequence Detection System software (Perkin Elmer). […] As expected no induction is observed in LXRαβ−/− mice.

A further experiment deals with peritoneal macrophages. Briefly: ApoA1-dependent cholesterol efflux assay (reverse cholesterol transport) in peritoneal macrophages. Type of experiment: cell-based, mice. As to conditions: 1.0 μM. The source says: The individual contributions of both receptors to macrophage gene expression were examined by first measuring the amount of mRNA encoding LXRα and LXRβ in thioglycolate-elicited peritoneal macrophages obtained from mixed wildtype mice. Thioglycolate-elicited peritoneal macrophages were isolated from mice 4 days after peritoneal injection of thioglycolate media. Peritoneal macrophages were harvested by lavage of the peritoneum with phosphate buffered saline (PBS), cells were washed, transferred to 60 mm culture plates and incubated at 37° C. in RPMI 1640 media (Life Technologies) containing 10% FBS, 2 mmol/L glutamine, 100 μg/mL streptomycin and 100 IU penicillin (Life Technologies). After 5 hours at 37° C., cells were washed 5 times with PBS to remove non-adherent cells and adherent cells were further incubated in RPMI 1640 media supplemented with 10% FBS for 24 hours. To determine the mRNA levels of LXRα and LXRβ, after 24 hours total RNA was isolated from cultured macrophages using RNeasy kits (QIAGEN Inc.) according to the supplier's total RNA isolation procedure. The RNA samples were further treated with deoxyribonuclease I to eliminate contaminating genomic DNA. LXRα and LXRβ mRNA levels were than analyzed by real-time based quantitative PCR using Perkin Elmer ABI Prism 7700 and Sequence Detection System software (Perkin Elmer). […] Since ABCA1 is involved in mediating reverse cholesterol transport, peritoneal macrophages isolated as described above and cultured for 24 hours in the absence or presence of LXR agonist (1.0 μM Compound 1) were examined in a cholesterol efflux assay which measures reverse cholesterol transport in vitro. Mouse peritoneal macrophages isolated as described above from wildtype (mixed and C57BL/6), LXRα−/− (C57BL/6), LXRβ−/−, and LXRαβ−/− mice were cultured in 96 well plates (5×10^4 cells/well) at 37° C. After 24 hours, cells were labeled for 48 hours with 0.2 μCi/ml ^14C-cholesterol in RPMI 1640 medium with 1% FBS. Following the labeling period, ^14C-cholesterol was removed and the cells were cultured for 24 hours in serum free RPMI 1640 media in the presence or absence of 10 μg/ml apolipoprotein A (ApoA1). In this assay ApoA1 acts as a cholesterol acceptor and mimics the cholesterol-accepting function performed by HDL particles in vivo. Following this incubation, the media is removed, cells are washed and than lysed with 0.2 M sodium hydroxide. To determine ApoA1-dependent cholesterol efflux, the amount of ^14C-cholesterol present in the media is divided by the total counts (media+cell lysate) and the value determined in the absence of ApoA is subtracted from the value determined in the presence of ApoA. […] No effect is observed upon elimination of LXRα alone.

The structures appear in SMILES notation.

With `O=S(=O)(c1ccccc1)N(CC(F)(F)F)c1ccc(C(O)(C(F)(F)F)C(F)(F)F)cc1` [Compound 1, N-(2,2,2-trifluoroethyl)-N-[4-(2,2,2-trifluoro-1-hydroxy-1-trifluoromethylethyl)-phenyl]-benzene sulfonamide], the “effect on serum triglyceride levels” value in experiment [1] (LXRβ−/− mice) was “no effect on the ability of LXR agonists to elevate triglycerides”; in experiment [1] (mice lacking LXRα (LXRα−/−, LXRαβ−/−)), “elevates serum triglyceride levels only in mice that have LXRα”; in experiment [1] (wildtype mice), “elevates serum triglyceride levels”. Moreover, the “CYP7a mRNA induction” value in the experiment with CYP7a mRNA (LXRαβ−/− mice) is “no induction”; with CYP7a mRNA (LXRα−/− mice), “can induce transcription of the CYP7a gene”; with CYP7a mRNA (LXRβ−/− mice), “can induce transcription of the CYP7a gene”; in the experiment on CYP7a mRNA (wildtype mice), “can induce transcription of the CYP7a gene”. For the same compound, the “CYP7a induction level relative to wildtype agonist-treated mice” value with CYP7a mRNA (LXRβ alone (LXRα−/− mice)) is recorded as 20%-50%. The “reverse cholesterol transport (cholesterol efflux)” value in the experiment on peritoneal macrophages (LXRαβ−/− macrophages) is “further reduced”; with peritoneal macrophages (LXRα−/− (C57BL/6) macrophages), “No effect”; in the experiment with peritoneal macrophages (LXRβ−/− macrophages), “significantly reduced”; in the experiment with peritoneal macrophages (wildtype (mixed and C57BL/6) macrophages) it was “stimulates reverse cholesterol transport”.
